Entries after “also recorded” stand apart in the source; their conditions may differ.
Tests used:
IL-1ra [1] = test: Immunohistochemistry of IL-1ra expression in explants of healthy human skin; format: cell-based; settings: for intensity of expression of IL-1ra / intensity of expression of IL-1ra in the epidermis: 24 hours; for intensity of expression of IL-1ra: scale 0-3; for intensity of expression of IL-1ra in the epidermis: healthy donors (n=8), scale 0=none to 3=strong, mean (+/−)
Method: (§1) Fragments of healthy skin from 8 healthy donors were obtained from mammary plasties (plastic surgery) or from a foreskin (infant surgery).
(§2) The fragments of healthy skin and of acneic skin were incubated at 37° C. in a humid atmosphere and in the presence of 5% CO2 for 24 hours in KGM culture medium without hydrocortisone (PromoCell, Heidelberg, Germany). The culture medium was supplemented with 2 different concentrations of adapalene (Galderma, Sophia Antipolis): 10^−7 M and 10^−6 M. The culture medium alone served as control medium.
(§3) After incubation, the explants were removed from the culture medium and were then frozen in liquid nitrogen for the immunohistochemical study. The culture supernatants were frozen at −80° C. to evaluate the protein secretion using an ELISA assay technique.
(§4) The expression of IL-1ra was evaluated by an immunoperoxidase technique in the explants of healthy skin from 8 healthy donors and of the acneic skin from 8 patients.
For this, cryostat sections 5 μm thick were cut from the skin explants, and were then fixed in acetone at 4° C. for 10 minutes. After saturation of the nonspecific sites with bovine albumin (BSA) for 30 minutes at ambient temperature, the slides were incubated for 30 minutes at ambient temperature and in a humid atmosphere in the presence of the corresponding primary antibody [anti-IL-1ra monoclonal antibody at 10 μg/ml (R&D Systems)] or of an irrelevant isotype antibody for the negative control (normal goat IgG at (R&D Systems), IgG2a monoclonal antibody (DAKO, Trappes, France), IgG1 monoclonal antibody (DAKO)).
After washing for 15 minutes in TBS/0.1% BSA/0.05% Tween 20, the slides were incubated with a biotinylated secondary antibody (DAKO) for 30 minutes at ambient temperature and in a humid atmosphere. After a further washing step, the slides were incubated for 30 minutes in the presence of streptavidin/peroxidise (DAKO) for 30 minutes at ambient temperature and in a humid atmosphere. After a final wash, the slides were incubated for 5 minutes in the presence of AEC (DAKO), a substrate for peroxidise, and then counterstained with Mayer's hemalun. The slides were read under a microscope.
(§5) The slides were read under a Leitz microscope by 2 investigators.
A semi-quantitative scale was used to define the intensity of the labeling: 0=none, 1=weak, 2=medium, 3=strong.
(§6) A mean was established on 8 healthy donors or 8 acneic patients in each of the “control”, “10^−7 M adapalene” and “10^−6 M adapalene” groups.
(§7) The paired Wilcoxon test was employed for the statistical analysis, and p<0.05 (by comparison with the control medium) was considered to be significant.

IL-1ra [2] = test: Immunohistochemistry of IL-1ra expression in explants of acneic skin; format: cell-based, human; settings: for intensity of expression of IL-1ra in the epidermis: acneic patients (n=8), 24 hours, scale 0-3
Method: (§8) A skin biopsy (1×1.5 cm) was obtained from inflammatory papulae of lesions on the back of 8 acneic patients (having received no local treatment for 2 weeks or no general treatment for 1 month, or 3 months with isotretinoin). The fragments sampled were immediately placed in culture.
as §2, §3, §4
For this, cryostat sections 5 μm thick were cut from the skin explants, and were then fixed in acetone at 4° C. for 10 minutes. […]
After washing for 15 minutes in TBS/0.1% BSA/0.05% Tween 20, the slides were incubated with a biotinylated secondary antibody (DAKO) for 30 minutes at ambient temperature and in a humid atmosphere. […] The slides were read under a microscope.
as §5
A semi-quantitative scale was used to define the intensity of the labeling: 0=none, 1=weak, 2=medium, 3=strong. […]

IL-1ra [3] = test: ELISA assay of IL-1ra secreted in culture supernatants of explants of healthy skin; format: cell-based, human; settings: for amount of IL-1ra secreted in the culture supernatants: healthy skin explants (n=8), 24 hours
Method: as §1, §2, §3
(§9) The IL-1ra protein secretion […] in the culture supernatants of the explants of acneic skin and of healthy skin, incubated in the presence or absence of adapalene, was evaluated by means of an ELISA assay using the IL-1ra Cytoscreen detection kit (Biosource Europe S.A., Nivelles, Belgium) and according to the supplier's instructions.
as §6, §7

IL-1ra [4] = test: ELISA assay of IL-1ra secreted in culture supernatants of explants of acneic skin; format: cell-based, human; settings: for secreted amount of IL-1ra: acneic skin explants (n=8), 24 hours; for increase of secreted IL-1ra compared with the control medium: acneic skin explants
Method: as §8, §2, §3, §9, §6, §7

RARγ = target: T1, RARγ (Homo sapiens, UniProt P13631); settings: cited from earlier work
T1 sequence (P13631 1-454): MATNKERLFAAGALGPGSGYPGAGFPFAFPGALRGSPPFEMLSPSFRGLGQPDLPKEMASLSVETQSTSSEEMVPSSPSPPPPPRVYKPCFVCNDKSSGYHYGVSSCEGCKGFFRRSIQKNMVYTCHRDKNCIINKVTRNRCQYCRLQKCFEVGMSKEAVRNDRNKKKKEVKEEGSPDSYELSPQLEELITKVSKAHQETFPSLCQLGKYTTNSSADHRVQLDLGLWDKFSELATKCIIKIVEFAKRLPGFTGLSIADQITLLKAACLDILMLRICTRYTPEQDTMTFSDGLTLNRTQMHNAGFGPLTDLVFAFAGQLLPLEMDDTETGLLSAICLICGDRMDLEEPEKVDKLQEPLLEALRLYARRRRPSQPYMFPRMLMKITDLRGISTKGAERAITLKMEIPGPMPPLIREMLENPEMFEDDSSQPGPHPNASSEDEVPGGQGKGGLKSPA

RARβ = target: T2, RARβ (Homo sapiens, UniProt P10826); settings: cited from earlier work
T2 sequence (P10826 1-455): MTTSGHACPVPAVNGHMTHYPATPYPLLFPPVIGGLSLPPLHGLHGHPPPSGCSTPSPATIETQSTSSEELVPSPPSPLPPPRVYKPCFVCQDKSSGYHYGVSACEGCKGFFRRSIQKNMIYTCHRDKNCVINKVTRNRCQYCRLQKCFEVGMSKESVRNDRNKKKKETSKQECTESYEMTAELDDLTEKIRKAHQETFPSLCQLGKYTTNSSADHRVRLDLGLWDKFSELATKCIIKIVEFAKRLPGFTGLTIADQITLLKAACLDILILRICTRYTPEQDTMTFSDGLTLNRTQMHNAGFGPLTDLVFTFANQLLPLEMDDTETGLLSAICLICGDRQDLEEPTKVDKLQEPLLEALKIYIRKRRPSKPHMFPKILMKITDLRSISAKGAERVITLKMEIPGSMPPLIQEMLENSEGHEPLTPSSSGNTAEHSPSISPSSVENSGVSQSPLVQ

[5] = system: cellular retinoic acid binding proteins; settings: cited from earlier work
lipoxygenase pathway = settings: cited from earlier work
[6] = system: polymorphonuclear neutrophils; settings: cited from earlier work
free radicals = settings: cited from earlier work
[7] = system: superficial inflammatory lesions; settings: clinically; cited from earlier work

COc1ccc(-c2ccc3cc(C(=O)O)ccc3c2)cc1C12CC3CC(CC(C3)C1)C2 [adapalene, 6-[3-(1-adamantyl)-4-methoxyphenyl]-2-naphthoic acid]
intensity of expression of IL-1ra (IL-1ra [1]; 1st subgroup of healthy donors (n=4, weak control expression), 10^−6 M adapalene): 1.2 (+/−0.4)
intensity of expression of IL-1ra (IL-1ra [1]; 1st subgroup of healthy donors (n=4, weak control expression), 10^−7 M adapalene): 1.1 (+/−0.4)
modulatory effect on the expression of IL-1ra (in words) (IL-1ra [1]; 1st subgroup of healthy donors, expression in the control medium weak): an inducing effect
intensity of expression of IL-1ra (IL-1ra [1]; 2nd subgroup of healthy donors (n=4, greater control expression), 10^−6 M adapalene): 0.5 (+/−0.0)
intensity of expression of IL-1ra (IL-1ra [1]; 2nd subgroup of healthy donors (n=4, greater control expression), 10^−7 M adapalene): 0.5 (+/−0.0)
modulatory effect on the expression of IL-1ra (in words) (IL-1ra [1]; 2nd subgroup of healthy donors, expression in the control medium greater): an inhibitory effect
intensity of expression of IL-1ra in the epidermis (IL-1ra [1]; 10^−6 M adapalene): 0.8 (+/−0.4)
intensity of expression of IL-1ra in the epidermis (IL-1ra [1]; 10^−7 M adapalene): 0.9 (+/−0.5)
modulatory effect on the expression of IL-1ra in the epidermis (in words) (IL-1ra [1]; mean of 8 healthy donors, 10^−7 M and 10^−6 M): No significant modulation; also recorded: does not demonstrate a modulatory effect
intensity of expression of IL-1ra in the epidermis (IL-1ra [2]; 10^−6 M adapalene): 0.9 (+/−0.7)
intensity of expression of IL-1ra in the epidermis (IL-1ra [2]; 10^−7 M adapalene): 0.8 (+/−0.8)
effect on the expression of IL-1ra in the epidermis (in words) (IL-1ra [2]; acneic patients, 10^−7 M and 10^−6 M): increases the expression
amount of IL-1ra secreted in the culture supernatants (IL-1ra [3]; 10^−6 M adapalene): 564 pg
amount of IL-1ra secreted in the culture supernatants (IL-1ra [3]; 10^−7 M adapalene): 600 pg
decrease of secreted IL-1ra compared with the control medium (IL-1ra [3]; healthy skin explants, 10^−6 M adapalene): 3.5%
increase of secreted IL-1ra compared with the control medium (IL-1ra [3]; healthy skin explants, 10^−7 M adapalene): 2.6%
secreted amount of IL-1ra (IL-1ra [4]; 10^−6 M adapalene): 1161 pg
secreted amount of IL-1ra (IL-1ra [4]; 10^−7 M adapalene): 1196 pg
increase of secreted IL-1ra compared with the control medium (IL-1ra [4]; 10^−6 M adapalene): 1.4%
increase of secreted IL-1ra compared with the control medium (IL-1ra [4]; 10^−7 M adapalene): 4.4%
binding to RARγ (in words) (RARγ): binds selectively
binding to RARβ (in words) (RARβ): binds selectively
binding to cellular retinoic acid binding proteins (in words) [5]: does not, on the other hand, bind
oxidative metabolism of arachidonic acid via the lipoxygenase pathway (in words) (lipoxygenase pathway): inhibits
production of leukotrienes via the lipoxygenase pathway (in words) (lipoxygenase pathway): inhibits
chemotaxis of polymorphonuclear neutrophils (in words) [6]: inhibits
production of free radicals (in words) (free radicals): inhibits
clinical activity on superficial inflammatory lesions (in words) [7]: exhibits an activity
